Assay results: patent US6395775B1, “Combating pest insects” (priority 1995, dated 2002)
Entries after “also recorded” stand apart in the source; their conditions may differ.

How the values were obtained:
[1] = tested on: codling moth, Cydia pomonella; experiment: Pheromone trap catch test; type: in vivo; conditions: for behavioural effect on codling moth in pheromone traps: isomer of the acetate combined with E8,E10-dodecadien-1-ol in traps
Excerpt: Pheromone traps were loaded with the pheromone, E8,E10-dodecadien-1-ol of the codling moth, (FIG. 1A). In other traps the alcohol was combined with the corresponding acetate (FIG. 1B). At a blend of 20% of the acetate the catch decreased to ⅛ (dark column).

[2] = tested on: codling moth, Cydia pomonella; experiment: Confusion test in 100 m^2 test areas in a fruit orchard; type: in vivo; conditions: for confusing effect (males trapped compared with non-treated control square): four dispensing means in the corners, pheromone trap in the center
Procedure: In another test a confusion test was carried out in 100 m^2 quadratic test areas in a fruit orchard. […] In the respective center of each square, a pheromone trap loaded with the sex pheromone, E8, E10-dodecadien-1-ol of the codling moth, was placed. The confusing effect was calculated as the number of males trapped in the trap compared with the number trapped in a trap in a non-treated control square, i.e. without any behavior antagonist in the respective corner. […] The sex pheromone of the codling moth, the alcohol, is as already mentioned, in commercial use. The inhibiting results are, however, not always satisfying, (Cardé & Minks, 1995, “Control of moth pests by mating disruption. Successes and constraints”, Ann. Rev. Entomol. 49:559-585) in particular not in fruit orchards having high trees and a high population density. […] Probably, the concentration of pheromone from located dispensing means so low there, that the attracting power of the pheromone dominates its confusing effect. Males circulating in the tree tops may also be caught in lower placed traps which indicates a lacking confusing effect. […] Several of the males caught in pheromone traps in such treated squares can be seen flying some meters above the ground and straight into the trap. They never arrived from the top of the trees.

C. pomonella males = experiment: Wind tunnel experiments, male attraction; type: in vivo, Cydia pomonella; conditions: codlemone 10 pg/min; E8,Z10-dodecadien-1-ol added at 3% by weight or E8,E10-dodecadienyl acetate at 1% by weight; n=60
Excerpt: Tests were done in a wind tunnel with a flight section of 63 by 90 by 200 cm. Dilutions of synthetic compounds in redistilled ethanol were released from an ultrasound evaporator (Gödde et al. 1999). A motor-driven syringe delivered pheromone solutions in ethanol, through micro-tubing, to a glass capillary tube with a 40 μm tip. A piezo-ceramic disc vibrates the tip of the capillary tube at 100-140 kHz, and the pheromone solution evaporates within a few cm of the tip of the capillary.
The main compound codlemone, E8,E10-dodecadien-1-ol, was applied at a rate of 10 pg/min, E8,Z10-dodecadien-1-ol was added at 3% by weight (FIG. 2), E8,E10-dodecadienyl acetate was added at 1% by weight (FIG. 3).
Test sessions started 1 h after lights off and lasted 3 to 4 h. Two-day-old males were placed individually in glass tubes (15 by 2.5 cm) stoppered with gauze, 15 min prior to testing. Males were released individually and were allowed 2 min to respond. Treatments were tested on 4 days with 15 males/day (n=60).
The sequence of male behaviours elicited by perception of sex pheromone includes activation from rest and taking flight, upwind-oriented flight towards the pheromone source, landing at the pheromone source, and display of courtship behaviors close to the source (walking while wingfanning) (FIGS. 2 and 3). These behaviors are followed by mating, if the pheromone source is a calling female.

codling moth = conditions: cited from earlier work; for previous classification of behavioural role: Hathaway et al. 1974, Witzgall et al. 1996a, El-Sayed et al. 1998

SMILES	behavioural effect on codling moth in pheromone traps [1]	confusing effect (males trapped compared with non-treated control square) [2]	male attraction and close range behaviours at the pheromone source, compared to E8,E10-dodecadien-1-ol alone (C. pomonella males)	previous classification of behavioural role (codling moth)	further results
C/C=C/C=C/CCCCCCCOC(C)=O [E8,E10-dodecadien-1-yl acetate]	behaviour antagonist	strong confusing effect	enhances male attraction and close range behaviours; also recorded: acts as an antagonist when present in high amounts, and as a synergist when present in lower amounts	pheromone antagonists	catch in pheromone traps, decrease relative to E8,E10-dodecadien-1-ol alone ([1]; alcohol combined with the acetate, blend of 20% of the acetate): ⅛
C/C=C/C=C\CCCCCCCOC(C)=O [ZE]	behaviour antagonists				
CC=CC=CCCCCCCCOC(C)=O [EZ]	behaviour antagonists				
C/C=C\C=C\CCCCCCCO [E8,Z10-dodecadien-1-ol]			enhances male attraction and close range behaviours	pheromone antagonists	
C/C=C/C=C/CCCCCCCO [E8,E10-dodecadien-1-ol]		strong confusing effect			observation of males in the tree tops of treated squares ([2]; fruit orchards having high trees and a high population density): males are attracted to the tree tops; attraction of the codling moth by geometric isomers of the alcohol (codling moth; Roelofs et al (1972)): very attractive
CC=CC=CCCCCCCCOC(C)=O [ZZ]					behavioural effect on codling moth in pheromone traps ([1]; listed as zz-isomer): most powerful of the four isomers
